Assay results taken from US20250382261A1 (The Broad Institute, Inc., priority 2021, published 2025).

Key:
[1] = tested on: A. baumannii (ATCC 17978); experiment: Checkerboard potentiation assay with novobiocin; assay type: cell-based; conditions: with novobiocin
Procedure: (§1) Bacterial strains and culture conditions. The following bacterial strains were used within this study; A. baumannii (ATCC 17978), K. pneumoniae (ATCC 43816), K. pneumoniae (ATCC 43816, expressing pGDP2:mcr-1), P. aeruginosa (PA01). Bacterial growth was in cation-adjusted Mueller-Hinton broth (MHB) at 37° C., and inoculum was prepared according to CLSI protocol (CLSI 2015).
(§2) Potentiation assays. Checkerboard analyses were conducted with each drug serially diluted at eight concentrations to create an 8×8 matrix. At least two biological replicates were done for each combination, and the means were used for FIC calculation. The FIC for each drug was calculated by dividing the concentration of the drug in the presence of codrug in a combination for a well showing <10% growth by the MIC for that drug alone. The FIC index (FICI) is the sum of the two FICs, with an FIC index≤0.5 deemed synergistic.

LPS from E. coli EH100 = experiment: BODIPY-Cadaverine LPS displacement assay; assay type: binding; conditions: for LPS Displacement (EC50, μg/mL): BODIPY-cadaverine displacement from E. coli EH100 LPS
Procedure: BODIPY-Cadaverine LPS displacement assay. The BODIPY-cadaverine LPS displacement assay was performed as previously described (Wood et al. 2004. Combinatorial Chemistry & High Throughput Screening, 7: 239-49; Klobucar et al. 2021. ACS Chemical Biology, 16: 929-42). A solution of BODIPY-cadaverine (2.25 μM) and LPS from E. coli EH100 (5.25 μM) in Tris-HCl buffer (50 mM, pH 7.4) was prepared. 0.5 μL of compound and 49.5 μL of the Tris-HCl buffer with BODIPY-cadaverine and LPS solution were added to a Corning nonbinding surface black 384-well polystyrene plate. Fluorescence intensity was measured immediately with an excitation wavelength of 580 nm and an emission wavelength of 620 nm. EC50 values were calculated using a three-parameter logistic curve in GraphPad Prism 9.

[2] = HEK293 cytotoxicity assay (Cell Titer Glo); assay type: cell-based; conditions: human, HEK293T Cytotoxicity (IC50, μg/mL)
Procedure: Cytotoxicity Assays. HEK293 (ATCC CRL 1573) cells were left to adhere for 18 h at 7.5×10^3 cells per well in DMEM containing 10% FBS and 2 mM L-glutamine. Compound was added directly into the well. After 48 h of treatment Promega Cell Titer Glo 2.0® was added, shaken for 10 min, and luminescence read (Biotek Neo). AC50 values were calculated using a four-parameter logistic curve in GraphPad Prism 9.
Focusing on only the analogs that retained synergistic activity with novobiocin (FICI≤0.5), half-maximal activity (AC50) values were calculated against HEK293 cells using a CellTiter-Glo® based assay to approximate cell viability. […] Specifically, the FICI value for both P35 and P36 was 0.094 against A. baumannii, while their AC50 values were 235 μg/mL and 200 μg/mL, respectively.

[3] = tested on: K. pneumoniae (ATCC 43816); experiment: Checkerboard potentiation assay with novobiocin; assay type: cell-based
Procedure: as §1, §2
(§3) To probe the spectrum of activity of the present analogs beyond A. baumannii, their interactions with novobiocin were assessed against the high-priority Gram-negative pathogens Klebsiella pneumoniae and P. aeruginosa (FIG. 5).

P. aeruginosa (PA01) = experiment: Checkerboard potentiation assay with novobiocin; assay type: cell-based
Procedure: as §1, §2, §3

A. baumannii ATCC 17978 = experiment: Systemic A. baumannii murine infection model; assay type: in vivo, mouse
Procedure: Mouse infection models. Animal experiments were conducted according to guidelines set by the Canadian Council on Animal Care using protocols approved by the Animal Review Ethics Board at McMaster University under Animal Use Protocol #20-12-43. Before infection, mice were relocated at random from a housing cage to treatment or control cages. No animals were excluded from analyses, and blinding was considered unnecessary. Seven- to nine-week-old female C57BL/6 mice (Charles River) were infected intraperitoneally with ˜2×10^6 CFU of A. baumannii ATCC 17978, with 5% porcine mucin (Sigma-Aldrich). Infections were allowed to establish for 2 h, and treatments were administered intraperitoneally. For the survival study, the clinical endpoint was determined using a five-point body condition score analyzing weight loss, decrease in body temperature, respiratory distress, hampered mobility and hunched posture. Experimental endpoint was defined as five days post-infection for mice not reaching clinical endpoint. For CFU/mL enumeration, animals were infected as described above and euthanized 6 h post-infection, and blood was collected into sterile 2 ml heparinized tubes (BD Scientific) serially diluted in PBS and plated onto solid LB. Plates were incubated overnight at 37° C., and colonies were quantified to determine bacterial load.
This was directly compared to the activity of P35 and P36 in this model (all administered at 10 mg/kg) in combination with novobiocin (50 mg/kg).
For this experiment the same A. baumannii infection model was used, however, endpoint was defined as 6 h post-infection, at which point blood was collected for CFU/mL enumeration (FIG. 2b).

| SMILES | FICI AB [1] | LPS Displacement (EC50, μg/mL) (LPS from E. coli EH100) | IC50 at 48 h [2] | FICI KP [3] | FICI PA (P. aeruginosa (PA01)) | Increase of LPS binding affinity compared to pentamidine (LPS from E. coli EH100; BODIPY displacement EC50 relative to pentamidine) | Animals rescued in combination with novobiocin (A. baumannii ATCC 17978; 10 mg/kg analog + 50 mg/kg novobiocin i.p. 2 h post-infection, endpoint 5 days) | Impact on blood CFU/mL, treatment alone (A. baumannii ATCC 17978; alone, 6 h post-infection, compared to control-treated animals) |
| --- | --- | --- | --- | --- | --- | --- | --- | --- |
| N=C(N)c1ccc(OCCC2(CCOc3ccc(C(=N)N)cc3)CCCCCC2)cc1 [Analog P04] | 0.14 | 15.97 µg/mL | 37.1 mg/L | 0.25 | 0.531 | – | – | – |
| CC(C)(CCOc1ccc(C(=N)N)cc1)CCOc1ccc(C(=N)N)cc1 [Analog P06] | 0.187 | 62.47 µg/mL | 69.1 mg/L | 0.156 | 0.375 | – | – | – |
| CCC(CC)(CCOc1ccc(C(=N)N)cc1)CCOc1ccc(C(=N)N)cc1 [Analog P07] | 0.0625 | 19.04 µg/mL | 31.2 mg/L | 0.156 | 1 | > 10 fold | – | – |
| N=C(N)c1ccc(OC2CCC(Oc3ccc(C(=N)N)cc3)CC2)cc1 (stereo not shown) [Analog P08] | 0.375 | 288.7 µg/mL | > 160 mg/L | 0.25 | 2 | – | – | – |
| N=C(N)c1ccc(OCCCCCOc2ccc(C(=N)N)cc2F)c(F)c1 [Analog P12] | 0.187 | 63.21 µg/mL | 95.5 mg/L | 0.187 | 0.5 | – | – | – |
| N=C(N)c1ccc(OCCCCCOc2ccc(C(=N)N)nc2)cn1 [Analog P16] | 0.25 | 60.19 µg/mL | 183 mg/L | 0.375 | 1 | – | – | – |
| N=C(N)c1ccc(OCCC2CCCCC2CCOc2ccc(C(=N)N)cc2)cc1 (stereo not shown) [Analog P21] | 0.094 | 13.08 µg/mL | 19.2 mg/L | 0.046 | 1 | – | – | – |
| N=C(N)c1ccc(OCCC2(CCOc3ccc(C(=N)N)cc3)CCC(C(=O)O)CC2)cc1 (stereo not shown) [Analog P30] | 0.625 | 119.4 µg/mL | 1100 mg/L | 1 | 2 | – | – | – |
| N=C(N)c1ccc(OCC2(COc3ccc(C(=N)N)cc3)CCCCC2)cc1 [Analog P31] | 0.094 | 43.82 µg/mL | 73.5 mg/L | 0.0937 | 0.187 | – | – | – |
| N=C(N)c1ccc(OCCN(CCOc2ccc(C(=N)N)cc2)Cc2ccccc2)cc1 [Analog P36] | 0.094 | 165.9 µg/mL | 200 mg/L | – | 0.5 | – | 80% | – |
| CO[C@@H]1[C@@H](OC(N)=O)[C@@H](O)[C@H](Oc2ccc3c(O)c(NC(=O)c4ccc(O)c(CC=C(C)C)c4)c(=O)oc3c2C)OC1(C)C [novobiocin, reference compound] | – | – | – | – | – | – | – | no significant impact |
